How the values were obtained:
[1] = Capsule perfume leakage in liquid fabric enhancer (LFE), headspace SPME GC/MS; format: physicochemical
Description: The testing of capsule leakage in liquid compositions (e.g., liquid fabric enhancer/“LFE” compositions and/or heavy-duty liquid/“HDL” detergents) is performed as follows. […] The 1 gram aliquot in the 7 ml vial is then mixed on a stirring plate for 24 h at 500 rpm, thereby ensuring that the capsules are broken by the grinding action of the stir bar against the bottom of the 7 ml vial. Optical microscopy can be used to verify that no more intact capsules remain. In case such capsules are found, the step is to repeated for an additional 24 h, or until all or almost all capsules are broken. Then, the formulation containing broken capsules is introduced into GC vials in a similar manner as for step (a). This yields total oil samples. It is to be noted that the capsule sample and the total oil sample are not analyzed on the same day, as there is a need to prepare the total oil sample after the capsule sample has been removed from storage. […] The perfume oil composition formulated herein is representative of the perfume oil composition that is present in the slurry. Then the free oil formulation is introduced into GC vials in a similar manner as for step (a). This yields reference samples, which must be used when analyzing both the capsule sample and the total oil sample. […] Two headspace vials are prepared for each sample. The sealed headspace vials are then allowed to equilibrate. Samples reach equilibrium after 3 hours at room temperature, but can be left to sit longer without detriment or change to the results, up until 24 hours after sealing the headspace vial. After equilibrating, the samples are analyzed by GC/MS. […] The perfume composition is analyzed by fast GC/MS in full scan mode. Ion extraction of the specific mass for each component is obtained. The leakage is calculated as follows, separately for the capsule sample and total oil sample, where “Area” denotes the area under the chromatogram peak corresponding to the PRM of interest: Once calculated for all PRMs for both the total oil sample and the capsule sample, the corrected PRM leakage can be calculated using the following formula: Once the corrected PRM leakage has been calculated for all PRMs, the Average leakage can be found by taking the arithmetic mean of each corrected PRM leakage. […] The resulting products are stored for one week at 35° C. At the end of the storage period, samples of each product composition are analyzed for perfume leakage out of the capsule using headspace analysis. The data is reported as a percentage, determined by comparing the amount of the individual perfume raw materials found in the headspace to the amount originally provided to the capsules.

[2] = Capsule perfume leakage in heavy-duty liquid (HDL) detergent, headspace SPME GC/MS; format: physicochemical
Description: The testing of capsule leakage in liquid compositions (e.g., liquid fabric enhancer/“LFE” compositions and/or heavy-duty liquid/“HDL” detergents) is performed as follows. […] The 1 gram aliquot in the 7 ml vial is then mixed on a stirring plate for 24 h at 500 rpm, thereby ensuring that the capsules are broken by the grinding action of the stir bar against the bottom of the 7 ml vial. Optical microscopy can be used to verify that no more intact capsules remain. In case such capsules are found, the step is to repeated for an additional 24 h, or until all or almost all capsules are broken. Then, the formulation containing broken capsules is introduced into GC vials in a similar manner as for step (a). This yields total oil samples. It is to be noted that the capsule sample and the total oil sample are not analyzed on the same day, as there is a need to prepare the total oil sample after the capsule sample has been removed from storage. […] The perfume oil composition formulated herein is representative of the perfume oil composition that is present in the slurry. Then the free oil formulation is introduced into GC vials in a similar manner as for step (a). This yields reference samples, which must be used when analyzing both the capsule sample and the total oil sample. […] Two headspace vials are prepared for each sample. The sealed headspace vials are then allowed to equilibrate. […] After equilibrating, the samples are analyzed by GC/MS. […] The perfume composition is analyzed by fast GC/MS in full scan mode. Ion extraction of the specific mass for each component is obtained. The leakage is calculated as follows, separately for the capsule sample and total oil sample, where “Area” denotes the area under the chromatogram peak corresponding to the PRM of interest: Once calculated for all PRMs for both the total oil sample and the capsule sample, the corrected PRM leakage can be calculated using the following formula: Once the corrected PRM leakage has been calculated for all PRMs, the Average leakage can be found by taking the arithmetic mean of each corrected PRM leakage. […] The resulting products are stored for one week at 35° C. At the end of the storage period, samples of each product composition are analyzed for perfume leakage out of the capsule using headspace analysis. The data is reported as a percentage, determined by comparing the amount of the individual perfume raw materials found in the headspace to the amount originally provided to the capsules.

[3] = PRM of Perfume 1 out of Comparative Example 4-1 capsules (polyacrylate shell), LFE Composition 1, 0.25 wt % perfume
[4] = PRM of Perfume 1 out of Comparative Example 6-1 capsules (no second shell component), LFE Composition 1
[5] = PRM of Perfume 1 out of Comparative Example 10-1 capsules (per EP2500087B1), LFE Composition 1
[6] = PRM of Perfume 1 out of Comparative Example 10-2 capsules (per WO2010013250A2, with IPM), LFE Composition 1
[7] = PRM of Perfume 1 out of Example 2, Sample A capsules, LFE Composition 1 (Ester Quat 1)
[8] = PRM of Perfume 1 out of Example 2, Sample A capsules, LFE Composition 2 (Ester Quat 2)
[9] = PRM of Perfume 1 out of Example 2, Sample A capsules, LFE Composition 3 (Ester Quat 3)
[10] = PRM of Perfume 1 out of Example 4-1 capsules (silica shell), LFE Composition 1, 0.25 wt % perfume
[11] = PRM of Perfume 1 out of Example 6-1 capsules (w/ second shell component), LFE Composition 1
[12] = PRM of Perfume 1 out of Example 10-1 capsules (Sample F, Perfume 1/IPM 40/60), LFE Composition 1
[13] = PRM of Perfume 1 out of Example 10-2 capsules (Sample A), LFE Composition 1
[14] = PRM of Perfume 3 out of Capsule Sample D, LFE Composition 1
[15] = PRM of Perfume 1 out of Comparative Example 5-1 capsules (polyacrylate shell)
[16] = PRM of Perfume 1 out of Comparative example 5-2 capsules (per EP2500087B1)
[17] = PRM of Perfume 1 out of Comparative example 5-3 capsules (per WO2010013250A2)
[18] = PRM of Perfume 1 out of Example 5-1 capsules (silica shell)
[19] = PRM of Perfume 2 out of Capsule Sample C, LFE Composition 1

Row | Leakage (as %) after 1 week at 35° C. [1, 3] [%] | Leakage (as %) after 1 week at 35° C. [1, 4] [%] | Leakage (as %) after 1 week at 35° C. [1, 5] [%] | Leakage (as %) after 1 week at 35° C. [1, 6] [%] | Leakage (as %) after 1 week at 35° C. [1, 7] [%] | Leakage (as %) after 1 week at 35° C. [1, 8] [%] | Leakage (as %) after 1 week at 35° C. [1, 9] [%] | Leakage (as %) after 1 week at 35° C. [1, 10] [%] | Leakage (as %) after 1 week at 35° C. [1, 11] [%] | Leakage (as %) after 1 week at 35° C. [1, 12] [%] | Leakage (as %) after 1 week at 35° C. [1, 13] [%] | Leakage (as %) after 1 week at 35° C. [1, 14] [%] | Leakage (as %) after 1 week at 35° C. [2, 15] [%] | Leakage (as %) after 1 week at 35° C. [2, 16] [%] | Leakage (as %) after 1 week at 35° C. [2, 17] [%] | Leakage (as %) after 1 week at 35° C. [2, 18] [%] | Leakage (as %) after 1 week at 35° C. [1, 19] [%] | SMILES | other results
1 | 4 | 5 | 89 | 92 | 1.6 | 0.8 | 1.0 | 8 | 9 | 19 | 9 | 8 | 1 | 105 | 102 | 31 | – | CC(=O)O[C@@H]1C[C@H]2CC[C@]1(C)C2(C)C (racemic) [iso-Bornyl acetate] | –
2 | – | – | – | – | – | – | – | – | – | – | – | 5 | – | – | – | – | 4 | CC=CC(=O)C1C(C)C=CCC1(C)C (centres unmarked) [1-(2,6,6-trimethyl-1-cyclohex-3-enyl)but-2-en-1-one] | –
3 | – | – | – | – | – | – | – | – | – | – | – | 2 | – | – | – | – | 2 | C=CCCC(=O)C1=CCCC(C)(C)C1 [1-(5,5-dimethyl-1-cyclohexenyl)pent-4-en-1-one] | –
4 | 31 | 94 | 94 | 96 | 2.1 | 1.1 | 1.6 | 7 | 8 | 22 | 8 | – | 12 | 104 | 101 | 31 | 12 | CC1=CC(C)C(C=O)CC1 (centres unmarked) [2,4-dimethylcyclohex-3-ene-1-carbaldehyde] | –
5 | – | – | – | – | – | – | – | – | – | – | – | 6 | – | – | – | – | – | CC(=O)C(C)=CC1C(C)=CCCC1(C)C (centres unmarked) [3-Methyl-4-(2,6,6-trimethyl-2cyclohexen-1-yl)-3-buten-2-one] | –
6 | – | – | – | – | – | – | – | – | – | – | – | – | – | – | – | – | 4 | CCC(=O)OC1C=CC2C3CCC(C3)C12 (centres unmarked) [3a,4,5,6,7,7a-hexahydro-1H-4,7-methanoinden-1-yl propanoate] | –
7 | 4 | 5 | 91 | 92 | 2.2 | 1.1 | 1.3 | 10 | 11 | 20 | 11 | – | 1 | 105 | 101 | 33 | – | CC(=O)OC1CCCCC1C(C)(C)C (centres unmarked) [(2-tert-butylcyclohexyl) acetate] | –
8 | 3 | 4 | 85 | 91 | 0.1 | 0.1 | 0.7 | 6 | 7 | 15 | 7 | – | 0 | 108 | 100 | 27 | – | CC(=O)OC1CCC(C(C)(C)C)CC1 (centres unmarked) [(4-tert-butylcyclohexyl) acetate] | –
9 | – | – | – | – | – | – | – | – | – | – | – | 9 | – | – | – | – | – | C=CCOC(=O)CCCCC [Allyl caproate] | –
10 | – | – | – | – | – | – | – | – | – | – | – | – | – | – | – | – | – | CC(=O)/C=C/C1C(C)=CCCC1(C)C (stereo not drawn) [Alpha-ionone] | Leakage (as %) after 1 week at 35° C. ([1]; PRM of Perfume 4 out of Comparative Example 9-1 capsules (per EP3078415A), LFE Composition 1): 58%; Leakage (as %) after 1 week at 35° C. ([1]; PRM of Perfume 4 out of Comparative Example 9-2 capsules (per EP3078415A, additional TEOS), LFE Composition 1): 69%; Leakage (as %) after 1 week at 35° C. ([1]; PRM of Perfume 4 out of Example 9-1 capsules (Sample E), LFE Composition 1): 15%
11 | – | – | – | – | – | – | – | – | – | – | – | 4 | – | – | – | – | – | CC(C)=CCCC(C)CCO (centres unmarked) [Citronellol] | –
12 | – | – | – | – | – | – | – | – | – | – | – | – | – | – | – | – | 4 | c1ccc(Oc2ccccc2)cc1 [Diphenyl oxide] | –
